Laboratory results reported in patent US6242224A, “Maltohexaose and maltoheptaose-forming amylase, and its preparation and uses” (Kabushiki Kaisha Mayashibara Seibutsu Kagaku Kenkyujo, priority 1994, dated 2001).

System: AMYLASE
Assay: Inhibition or promotion of AMYLASE activity by ions and EDTA
Format: biochemical, Alcaligenes latus D2271
Details: for inhibition of enzyme activity: one mM metal ion
Protocol: The activity of the present AMYLASE is assayed as follows: 0.2 ml of an enzyme solution is added to 5 ml of 0.3 w/v % soluble starch in 20 mM phosphate buffer (pH 5.5) containing 1 mM CaCl2), and the mixture solution is incubated at 40° C. for 10 min, followed by sampling 0.5 ml of the resultant solution, and adding the solution to 15 ml of 0.02N sulfate solution to suspend the enzymatic reaction. The resultant is mixed with 0.2 ml of 0.1N iodine solution, stirred, allowed to stand at 25° C. for 15 min, and its absorbance at a wave length of 660 nm determined. One unit activity of the present AMYLASE is defined as the amount of enzyme which diminishes the iodine coloration of 15 mg soluble starch when reacted at 40° C. for 10 min.
Effects of temperature and pH on the enzyme activity were studied in the presence of calcium chloride in accordance with the assay as used for determining the enzyme activity. […] The thermal stability of the enzyme was determined by incubating it in 20 mM acetate buffer containing 5 mM calcium chloride (pH 6.0) at different temperatures for 60 min, cooling the buffers, and assaying the remaining enzyme activity in each buffer. The pH stability of the enzyme was determined by incubating it in 20 mM acetate buffer having different pHs at 40° C. for one hour, adjusting the buffer to pH 6.0, and assaying the remaining enzyme activity in each buffer.

Row | SMILES | promotion of activity and stabilization of AMYLASE (calcium ion) | inhibition of enzyme activity
1 | [Ca+2] [calcium ion] | promoted its activity and stabilized | –
2 | [Cu+2] [copper ion] | – | inhibited
3 | [Pb+2] [lead ion] | – | inhibited
4 | [Hg+2] [mercury ion] | – | inhibited
5 | [Zn+2] [zinc ion] | – | inhibited
